Assay results taken from PMC7335359, “Design and Synthesis of Dihydroxamic Acids as HDAC6/8/10 Inhibitors” (Chemmedchem, 2020).

What was measured:
Format in all cases: cell-based
[1] = tested on: lysosomal staining with LysoTracker DND‐99 (HDAC10 knockdown phenotype); assay: LysoTracker assay in SK-N-BE(2)C cells; conditions: 10 μM inhibitor, normalized to DMSO
Procedure: LysoTracker assay: SK‐N‐BE(2)‐C cells were seeded into 6‐well dishes at a density of 1.5×10^5 cells per well. Cells were treated with inhibitor over night at concentrations indicated in the figure and stained the following day for 1 h with 50 nM LysoTracker® Red DND‐99 in medium under standard cell culture conditions. Cells were washed with ice‐cold RPMI without phenol‐red and trypsinized for 3 min at 37 °C. Detached cells were centrifuged for 3 min at 8600 g and re‐suspended in ice‐cold RPMI without phenol red. Mean LysoTracker fluorescence was quantified on a BD FACSCanto II platform using the PE filter setting. Data were normalized to mean LysoTracker fluorescence of solvent (DMSO) treated cells.

HDAC10 = biological target: T1, HDAC10 (Homo sapiens, UniProt Q969S8); assay: cellular BRET HDAC10 target engagement assay (stably transfected HeLa cells); parameters: host or cells: HeLa (stably transfected mono-clones); conditions: for IC50: read-out: HDAC10 BRET pIC50 (converted)
T1 sequence (Q969S8 1-669): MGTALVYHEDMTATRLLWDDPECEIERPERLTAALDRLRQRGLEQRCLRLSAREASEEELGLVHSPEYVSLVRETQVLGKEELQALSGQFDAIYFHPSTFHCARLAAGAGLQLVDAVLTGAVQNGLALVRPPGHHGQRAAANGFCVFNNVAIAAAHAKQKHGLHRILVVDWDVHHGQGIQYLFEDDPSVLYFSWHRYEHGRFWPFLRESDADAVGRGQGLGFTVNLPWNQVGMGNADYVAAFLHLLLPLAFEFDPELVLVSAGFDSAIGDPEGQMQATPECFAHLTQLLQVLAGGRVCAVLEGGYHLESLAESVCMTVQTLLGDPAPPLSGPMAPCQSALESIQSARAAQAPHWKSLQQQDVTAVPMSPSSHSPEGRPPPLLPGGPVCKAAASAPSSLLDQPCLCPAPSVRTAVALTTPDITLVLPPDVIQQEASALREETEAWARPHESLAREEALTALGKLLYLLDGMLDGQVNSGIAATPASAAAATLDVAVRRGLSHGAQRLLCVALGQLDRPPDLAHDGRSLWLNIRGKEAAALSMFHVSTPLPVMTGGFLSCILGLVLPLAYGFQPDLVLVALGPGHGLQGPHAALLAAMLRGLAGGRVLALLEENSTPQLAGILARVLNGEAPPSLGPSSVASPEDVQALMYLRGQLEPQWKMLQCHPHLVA
Procedure: Production of mono‐clones stably expressing HDAC‐nanoBRET proteins: Plasmids expressing a fusion of HDAC10 with nanoluciferase were obtained from Promega (N2170). HeLa cells (0.75×10^6) were seeded in a 6 cm dish and after 24 h were transfected with a mix of 10 μg plasmid and 3 μL Fugene in 200 μL OptiMEM. In detail, cells were washed with pre‐warmed OptiMEM and subsequently overlaid with 2.3 mL of OptiMEM. After addition of 200 μL transfection mix, cells were incubated for 24 h at 37 °C. Cells were than trypsinized and 0.2×10^5 cells were seeded into both 10 cm and 15 cm dishes. Transformants were selected with 1 mg/mL G‐418 for 6 days with a media change after 3 days. Clones which formed colonies were picked by rinsing plates with 3 mL Trypsin/EDTA (Sigma T3924) followed by a 2 min incubation with 300 μL Trypsin/EDTA at 37 °C. Colonies were then loosened and aspirated with a 10 μL filter tip and transferred to 24‐well plates containing selection medium.
Culture of stable BRET cell lines: Stably transfected HeLa cells were cultivated under sterile conditions in polystyrene cell culture flasks (658170, Greiner) at 37 °C and 5 % CO2 in a humidified atmosphere. DMEM growth medium (D6049, Sigma) was supplemented with 10 % FCS (FBS‐12A, Capricorn Scientific), 1 % penicillin‐streptomycin (P4333, Sigma) and 1 mg/mL Geneticin (2039.3, Roth). At confluency, cells were passaged by removing old medium, DPBS (14190‐094, gibco) wash, trypsination (T4049, Sigma) and seeding in fresh growth medium.
BRET assay: The intracellular target engagement assay on HDAC10 was performed as described by the kit manufacturer in a 96‐well plate (3600, Corning) format with 1.9×10^4 cells per well and a tracer concentration of 0.3 μM. […] Drug dosing was performed from 10 mM and 1 mM DMSO stock solutions with a D300e Digital Dispenser (Tecan), DMSO concentrations were normalized to 0.5 % for all wells. Assay plates were incubated at 37 °C for 2 h followed by measurement of 450 nm and 650 nm luminescence (80 nm bandwidth) at room temperature with a CLARIOstar (BMG Labtech) plate reader 2 min after NanoLuc substrate addition.

[2] = tested on: SK‐N‐BE(2)C neuroblastoma cell line; assay: SK-N-BE(2)C cell viability assay (CellTiter-Blue); conditions: SK-N-BE(2)C cells; for effect on cell viability: up to 100 μM
Procedure: Cell viability assay: SK‐N‐BE(2)C cells were cultured in Dulbecco's modified Eagle medium (DMEM, Lonza, Basel, Switzerland) supplemented with 10 % fetal calf serum (FCS, Sigma‐Aldrich) and 1 % non‐essential amino acids (NEAA, Lonza). SK‐N‐BE(2)C cells were seeded from a confluent flask into 96‐well plates in 100 μL full growth medium at a density of 5×10^3 cells per well the day before treatment. Cells were treated in triplicates with drug concentrations as indicated in the respective figure. Drugs were dosed from 50 mM and 200 mM stock solutions with a D300e Digital Dispenser (Tecan) and DMSO concentrations were normalized to 0.2 % for all wells. Plates were shaken (1000 rpm orbital shaker, 30 s) and incubated under standard culture conditions for 72 h. To each well 20 μL of CellTiter‐Blue® reagent (G8081, Promega) was added, plates were shaken (600 rpm orbital shaker, 20 s) and incubated at 37 °C overnight. Fluorescence was measured (extinction/emission: 570 nm/590 nm) on a FluoStar Optima (BMG Labtech) plate reader. Cell viability was normalized with untreated positive controls and cell‐free negative controls. IC50‐values were calculated as described in the BRET assay.

[3] = tested on: acetylation of the HDAC8 substrate SMC3; assay: Western blot of SMC3 acetylation in SK-N-BE(2)C cells; conditions: relative to solvent control
Procedure: Western blot analysis of SMC3, tubulin and histone H3 acetylation: For the analysis of protein acetylation, 1.5–2×10^6 SK‐N‐BE(2)‐C cells were seeded per 10 cm dish and allowed to adhere overnight. Cells were treated for 18 h (Figure 4B) or 6 h (Figure 4E) with inhibitors at concentrations indicated in the respective figure. […] Cell debris was removed by centrifugation (15 000 g for 10 min at 12 °C).

[4] = cellular target engagement, one experiment in triplicate

## CN(C)Cc1nn(Cc2ccc(C(=O)NO)cc2)c2ccccc12 [Compound 1g]
[1]
  lysosomal staining with LysoTracker DND-99 (HDAC10 knockdown phenotype): effective
HDAC10; [4]
  HDAC10 BRET pIC50: 7.80

## O=C(NO)c1ccc(Cc2c[nH]c3ccc(C(=O)NO)cc23)cc1 [Compound 3d]
[2]; 72 h
  IC50: 7000 nM
[3]
  acetylation of SMC3 (HDAC8 substrate), Western blot: increases acetylation
[1]
  lysosomal staining with LysoTracker DND-99 (HDAC10 knockdown phenotype): induces lysosomal acidification similar to Tubastatin A
HDAC10; BRET weaker than FRET
  loss of potency between the FRET and BRET HDAC10 assays: ~5 fold
HDAC10; [4]
  IC50: 15.1 nM

## CN(C)CCn1cc(Cc2ccc(C(=O)NO)cc2)c2cc(C(=O)NO)ccc21 [Compound 3e]
[2]
  effect on cell viability: little effect
[1]
  lysosomal staining with LysoTracker DND-99 (HDAC10 knockdown phenotype): failed to produce an HDAC10 knockdown phenotype

## CN(C)Cc1nn(Cc2ccc(C(=O)NO)cc2)c2cc(C(=O)NO)ccc12 [Compound 3g]
[2]
  effect on cell viability: little effect
[3]
  acetylation of SMC3 (HDAC8 substrate), Western blot: no effect
[1]
  lysosomal staining with LysoTracker DND-99 (HDAC10 knockdown phenotype): failed to produce an HDAC10 knockdown phenotype
HDAC10; [4]
  IC50: 158 nM
